Molecular target: T1, DoGES1 (Dendrobium officinale, UniProt A0A7H9SVV5)
T1 construct: gene GES1
T1 sequence (A0A7H9SVV5 1-582): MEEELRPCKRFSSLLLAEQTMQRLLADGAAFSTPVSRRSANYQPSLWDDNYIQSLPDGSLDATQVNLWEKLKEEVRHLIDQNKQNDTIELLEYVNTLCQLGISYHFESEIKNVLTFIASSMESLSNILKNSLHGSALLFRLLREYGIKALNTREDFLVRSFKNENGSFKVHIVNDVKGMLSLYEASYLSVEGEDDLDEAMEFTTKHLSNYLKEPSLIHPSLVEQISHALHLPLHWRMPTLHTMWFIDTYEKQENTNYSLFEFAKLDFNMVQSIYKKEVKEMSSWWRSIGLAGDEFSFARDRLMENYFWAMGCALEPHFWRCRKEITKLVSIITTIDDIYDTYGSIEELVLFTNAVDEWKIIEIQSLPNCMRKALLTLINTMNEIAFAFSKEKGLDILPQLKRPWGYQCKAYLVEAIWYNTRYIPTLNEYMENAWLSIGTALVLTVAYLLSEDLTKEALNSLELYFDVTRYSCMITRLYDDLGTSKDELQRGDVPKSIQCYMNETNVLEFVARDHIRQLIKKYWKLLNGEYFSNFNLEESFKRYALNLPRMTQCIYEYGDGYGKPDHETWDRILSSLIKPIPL
Test: GC-MS detection of geraniol product
Assay type: biochemical
Conditions: 10 mM GPP, 10 mM MgCl2, 5 mM dithiothreitol, MOPSO pH 7.0, 30 °C, 1 h

CC(C)=CCC/C(C)=C/COP(=O)(O)OP(=O)(O)O [geranyl pyrophosphate]
GC-MS detection of geraniol product: After incubation with GPP as substrate for the synthesis of monoterpenes, recombinant DoGES1 proteins successfully yielded geraniol
